Laboratory results: the supplement of paper PMC10307832

Assays:
Test in all cases: relative viability (nuclei count vs DMSO), 5 days (fraction); higher = more cells survive
201T = tested on: 201T
In short: (§1)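 Cells from lung cancer lines were seeded into 1536-well plates and, one day later, dosed by pin tool. Treatments were either a single drug or a fixed dose of an anchor drug with five library-drug doses (not always all listed) in √10 steps. After 5 days, nuclei were stained in a one-step fixation (final 0.05% Triton X-100, 1% formaldehyde, 1 ug/ml Hoechst) and counted on 4× images, and relative viability is the treated-to-vehicle nuclei ratio, as the median of duplicate plates.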

BEN = tested on: BEN
In short: as §1

HCC-827 = tested on: HCC-827
In short: as §1

LCLC-103H = tested on: LCLC-103H
In short: as §1

LCLC-97TM1 = tested on: LCLC-97TM1
In short: as §1

LXF-289 = tested on: LXF-289
In short: as §1

NCI-H1395 = tested on: NCI-H1395
In short: as §1

NCI-H1437 = tested on: NCI-H1437
In short: as §1

NCI-H1650 = tested on: NCI-H1650
In short: as §1

NCI-H1792 = tested on: NCI-H1792
In short: as §1

NCI-H1793 = tested on: NCI-H1793
In short: as §1

NCI-H1944 = tested on: NCI-H1944
In short: as §1

NCI-H2087 = tested on: NCI-H2087
In short: as §1

NCI-H2405 = tested on: NCI-H2405
In short: as §1

NCI-H3122 = tested on: NCI-H3122
In short: as §1

NCI-H322M = tested on: NCI-H322M
In short: as §1

NCI-H647 = tested on: NCI-H647
In short: as §1

NCI-H727 = tested on: NCI-H727
In short: as §1

RERF-LC-KJ = tested on: RERF-LC-KJ
In short: as §1

SK-LU-1 = tested on: SK-LU-1
In short: as §1

SMILES: CC(=O)O[C@@]12CO[C@@H]1C[C@H](O)[C@@]1(C)C(=O)[C@H](O)C3=C(C)[C@@H](OC(=O)[C@H](O)[C@@H](NC(=O)OC(C)(C)C)c4ccccc4)C[C@@](O)([C@@H](OC(=O)c4ccccc4)[C@H]21)C3(C)C [Docetaxel] + Nc1ncn([C@H]2C[C@H](O)[C@@H](CO)O2)c(=O)n1 [Decitabine] (partner 2 µM)
- relative viability (201T; first compound 0.0002 µM): 0.782
- relative viability (201T; first compound 0.000632 µM): 0.778
- relative viability (201T; first compound 0.002 µM): 0.701
- relative viability (201T; first compound 0.006325 µM): 0.47
- relative viability (201T; first compound 0.02 µM): 0.331
- relative viability (BEN; first compound 0.0002 µM): 0.522
- relative viability (BEN; first compound 0.000632 µM): 0.621
- relative viability (BEN; first compound 0.002 µM): 0.426
- relative viability (BEN; first compound 0.006325 µM): 0.417
- relative viability (BEN; first compound 0.02 µM): 0.325
- relative viability (HCC-827; first compound 0.0002 µM): 0.2
- relative viability (HCC-827; first compound 0.000632 µM): 0.343
- relative viability (HCC-827; first compound 0.002 µM): 0.279
- relative viability (HCC-827; first compound 0.006325 µM): 0.251
- relative viability (HCC-827; first compound 0.02 µM): 0.236
- relative viability (LCLC-103H; first compound 0.0002 µM): 0.712
- relative viability (LCLC-103H; first compound 0.000632 µM): 0.796
- relative viability (LCLC-103H; first compound 0.002 µM): 0.761
- relative viability (LCLC-103H; first compound 0.006325 µM): 0.713
- relative viability (LCLC-103H; first compound 0.02 µM): 0.524
- relative viability (LCLC-97TM1; first compound 0.0002 µM): 0.208
- relative viability (LCLC-97TM1; first compound 0.000632 µM): 0.189
- relative viability (LCLC-97TM1; first compound 0.002 µM): 0.133
- relative viability (LCLC-97TM1; first compound 0.006325 µM): 0.112
- relative viability (LCLC-97TM1; first compound 0.02 µM): 0.0836
- relative viability (LXF-289; first compound 0.0002 µM): 0.383
- relative viability (LXF-289; first compound 0.000632 µM): 0.382
- relative viability (LXF-289; first compound 0.002 µM): 0.25
- relative viability (LXF-289; first compound 0.006325 µM): 0.14
- relative viability (LXF-289; first compound 0.02 µM): 0.118
- relative viability (NCI-H1395; first compound 0.0002 µM): 0.709
- relative viability (NCI-H1395; first compound 0.000632 µM): 0.731
- relative viability (NCI-H1395; first compound 0.002 µM): 0.635
- relative viability (NCI-H1395; first compound 0.006325 µM): 0.425
- relative viability (NCI-H1395; first compound 0.02 µM): 0.295
- relative viability (NCI-H1437; first compound 0.0002 µM): 0.526
- relative viability (NCI-H1437; first compound 0.000632 µM): 0.629
- relative viability (NCI-H1437; first compound 0.002 µM): 0.406
- relative viability (NCI-H1437; first compound 0.006325 µM): 0.307
- relative viability (NCI-H1437; first compound 0.02 µM): 0.196
- relative viability (NCI-H1650; first compound 0.0002 µM): 0.376
- relative viability (NCI-H1650; first compound 0.000632 µM): 0.323
- relative viability (NCI-H1650; first compound 0.002 µM): 0.246
- relative viability (NCI-H1650; first compound 0.006325 µM): 0.2
- relative viability (NCI-H1650; first compound 0.02 µM): 0.193
- relative viability (NCI-H1792; first compound 0.0002 µM): 0.445
- relative viability (NCI-H1792; first compound 0.000632 µM): 0.394
- relative viability (NCI-H1792; first compound 0.002 µM): 0.376
- relative viability (NCI-H1792; first compound 0.006325 µM): 0.172
- relative viability (NCI-H1792; first compound 0.02 µM): 0.0755
- relative viability (NCI-H1793; first compound 0.0002 µM): 0.532
- relative viability (NCI-H1793; first compound 0.000632 µM): 0.359
- relative viability (NCI-H1793; first compound 0.002 µM): 0.278
- relative viability (NCI-H1793; first compound 0.006325 µM): 0.2
- relative viability (NCI-H1793; first compound 0.02 µM): 0.18
- relative viability (NCI-H1944; first compound 0.0002 µM): 0.45
- relative viability (NCI-H1944; first compound 0.000632 µM): 0.461
- relative viability (NCI-H1944; first compound 0.002 µM): 0.406
- relative viability (NCI-H1944; first compound 0.006325 µM): 0.291
- relative viability (NCI-H1944; first compound 0.02 µM): 0.139
- relative viability (NCI-H2087; first compound 0.0002 µM): 0.286
- relative viability (NCI-H2087; first compound 0.000632 µM): 0.227
- relative viability (NCI-H2087; first compound 0.002 µM): 0.172
- relative viability (NCI-H2087; first compound 0.006325 µM): 0.0964
- relative viability (NCI-H2087; first compound 0.02 µM): 0.098
- relative viability (NCI-H2405; first compound 0.0002 µM): 0.724
- relative viability (NCI-H2405; first compound 0.000632 µM): 0.75
- relative viability (NCI-H2405; first compound 0.002 µM): 0.663
- relative viability (NCI-H2405; first compound 0.006325 µM): 0.498
- relative viability (NCI-H2405; first compound 0.02 µM): 0.341
- relative viability (NCI-H3122; first compound 0.0002 µM): 0.441
- relative viability (NCI-H3122; first compound 0.000632 µM): 0.409
- relative viability (NCI-H3122; first compound 0.002 µM): 0.265
- relative viability (NCI-H3122; first compound 0.006325 µM): 0.182
- relative viability (NCI-H3122; first compound 0.02 µM): 0.126
- relative viability (NCI-H322M; first compound 0.0002 µM): 0.679
- relative viability (NCI-H322M; first compound 0.000632 µM): 0.609
- relative viability (NCI-H322M; first compound 0.002 µM): 0.613
- relative viability (NCI-H322M; first compound 0.006325 µM): 0.653
- relative viability (NCI-H322M; first compound 0.02 µM): 0.553
- relative viability (NCI-H647; first compound 0.000632 µM): 0.468
- relative viability (NCI-H647; first compound 0.002 µM): 0.171
- relative viability (NCI-H647; first compound 0.006325 µM): 0.153
- relative viability (NCI-H647; first compound 0.02 µM): 0.109
- relative viability (NCI-H727; first compound 0.0002 µM): 0.738
- relative viability (NCI-H727; first compound 0.000632 µM): 0.895
- relative viability (NCI-H727; first compound 0.002 µM): 0.709
- relative viability (NCI-H727; first compound 0.006325 µM): 0.663
- relative viability (NCI-H727; first compound 0.02 µM): 0.788
- relative viability (RERF-LC-KJ; first compound 0.0002 µM): 0.716
- relative viability (RERF-LC-KJ; first compound 0.000632 µM): 0.542
- relative viability (RERF-LC-KJ; first compound 0.002 µM): 0.232
- relative viability (RERF-LC-KJ; first compound 0.02 µM): 0.146
- relative viability (SK-LU-1; first compound 0.0002 µM): 0.613
- relative viability (SK-LU-1; first compound 0.000632 µM): 0.645
- relative viability (SK-LU-1; first compound 0.002 µM): 0.524
- relative viability (SK-LU-1; first compound 0.006325 µM): 0.378
- relative viability (SK-LU-1; first compound 0.02 µM): 0.269
